Laboratory results: patent US20260356835A1, “BICYCLIC HETEROARYL COMPOUNDS” (QuantX Biosciences US, Inc., priority 2023, published 2026)

How the values were obtained:
Kuramochi cells = test: Cellular Viability Assay (5 day Kuramochi cell viability, CellTiter-Glo); assay type: cell-based; conditions: 5 days, 37 °C, growth inhibition relative to Day 0 (T0) and DMSO
Protocol: Kuramochi cells were seeded at a density of 1000 cells per well in a 384-well, white, sterile, clear bottom plate, using a Multidrop liquid dispenser and incubated for 24 hours at 37 °C in a 5% CO2 humidified environment. 24 hours later, compounds were added starting at a top dose of 10 μM for a 9-point dose response curve at a 1:3 dilution using an iDOT HT liquid handler and incubated for 5 days at 37 °C in a 5% CO2 humidified environment. After 5 days and at Day 0, plates were incubated at room temperature for 30 minutes followed by the addition of 30 μl of CellTiter-Glo Reagent. Plates were then mixed for 10 minutes on an orbital shaker followed by incubation at room temperature for 20 minutes. Luminescence was then read using the Envision plate reader. Percent Growth Inhibition was then calculated using the following equation: Percent Growth Inhibition normalized=100−(compound signal−T0)/(max signal−T0)*100%, where Max Signal refers to the DMSO only treated cells and T0 refers to the Day0 viability measurement. Growth Inhibition 50 was then calculated using the following equation: Y=Bottom+(Top−Bottom)/(1+10^((Log IC50−X)*hillslope)).
For cell activity, bracket is denoted as: A<1 uM; 1 uM<B<5 uM; C>5 uM.

[1] = molecular target: T1, N-his8-TEV-hPARG (389-976) (Homo sapiens, UniProt Q86W56); test: PARG Biochemical Enzymatic Assay (PARG inhibition HTRF assay); conditions: 62.5 pM PARG, 5 nM Biotin-Parylated PARP1 substrate, 60 minutes preincubation, 10 minutes reaction at 23 °C
T1 construct: N-his8-TEV-hPARG (389-976); His8 (N); TEV protease cleavage site (N); made in house; host or cells: E. coli BL21(DE3)
Protocol: PARG Biochemical Enzymatic Assay
TEV-His8-PolyADP-Ribose Polymerase 1 (379-1014) (PARP1) and N-his8-TEV-hPARG (389-976) were used to transform BL21(DE3) competent cells followed by growth for 1 hour at 37 °C and plating on Kanamycin resistant agar plates. A single colony was then inoculated into 1 ml of Luria Broth and expansion into a 1 liter scale for growth at 37 °C for 3 hours. Expression was induced via 0.2 mM IPTG induction for 20 hours at 16 °C in BL21(DE3) E. coli. Purification was then performed using a Nickel column, size exclusion chromatography and HPLC analysis.
For substrate preparation, […] nicked DNA and 2 μM PARP1 protein were mixed for 10 minutes at 25 °C 10 μM biotin-NAD+ and 100 μM NAD+ were then added and incubated for 60 minutes at 30 °C to yield PARylated PARP1 substrate.
For compound screening, compounds were serially diluted to a 3× final concentration in assay buffer (Tris pH7.5 50 mM, KCl 50 mM, Tween-20 0.01%, BSA 0.1 mg/ml, EDTA 3 mM, EGTA 0.4 mM, DTT 1 mM) containing 1% DMSO. A top concentration of 1.5 μM for a 10-point dose response curve using a 1:3 dilution curve was used. 2.5×PARG (156.25 pM working concentration, 62.5 pM final concentration) was prepared in assay buffer and 4 ul added to a 384 well assay plate containing 2 μl of serially diluted compound. The plate was then centrifuged for 10 seconds and incubated for 60 minutes at 23 °C. 4 μl of 2.5× Biotin-Parylated PARP1 (12.5 nM working concentration, 5 nM final concentration) was then added to the plate and incubated for 10 minutes at 23 °C. 4 μl of […] Detection reagent containing 0.44 μg/ml of Streptavidin-Europium cryptate and 4 μg/ml of anti-6His-XL665 monoclonal antibody was added to the plate and incubated for 60 minutes at 23 °C. The Homogeneous Time Resolved Fluorescent (HTRF) signal was then measured on an Envision plate reader using and excitation wavelength of 337 nm and emission wavelengths of 615 nm and 665 nm. Normalized percent inhibition was then calculated using the following equation: % Inhibition normalized=(compound signal-min signal)/(max signal-min signal)*100%, where Maximum signal was substrate only wells and Minimum signal was enzyme and substrate well. IC50 was calculated by fitting % Inhibition values and log of compound concentrations to nonlinear regression (log(inhibitor) vs. response—Variable slope(four parameters)) with GraphPad 9.4.1
For biochemical activity, bracket is denoted as: A<100 nM; 100 nM<B<500 nM; C>500 nM

T1 sequence (Q86W56 389-976): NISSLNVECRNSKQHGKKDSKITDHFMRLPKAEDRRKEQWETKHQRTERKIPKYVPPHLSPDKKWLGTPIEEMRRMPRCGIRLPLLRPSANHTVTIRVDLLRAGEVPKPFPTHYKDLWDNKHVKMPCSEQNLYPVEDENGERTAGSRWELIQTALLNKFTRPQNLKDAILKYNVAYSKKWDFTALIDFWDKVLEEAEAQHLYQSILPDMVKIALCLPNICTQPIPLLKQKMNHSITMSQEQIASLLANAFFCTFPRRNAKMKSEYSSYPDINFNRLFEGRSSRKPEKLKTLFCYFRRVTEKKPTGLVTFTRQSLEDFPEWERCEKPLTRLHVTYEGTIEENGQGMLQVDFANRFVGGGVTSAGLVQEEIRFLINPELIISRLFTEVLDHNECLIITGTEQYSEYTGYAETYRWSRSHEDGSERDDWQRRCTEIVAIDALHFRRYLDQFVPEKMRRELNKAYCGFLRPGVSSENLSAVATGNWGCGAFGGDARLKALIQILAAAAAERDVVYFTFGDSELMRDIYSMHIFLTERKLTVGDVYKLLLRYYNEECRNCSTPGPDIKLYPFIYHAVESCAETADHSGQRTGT

| Compound | IC50 (Kuramochi cells) [µM] | IC50 [1] [µM] |
| --- | --- | --- |
| N#CC1(NS(=O)(=O)c2cc(C3=CCN(C(=O)C4CC4)CC3)n3ncc(-c4nnc(C(F)F)s4)c3c2)CC1 [Example 6, N-(1-cyanocyclopropyl)-7-(1-(cyclopropanecarbonyl)-1,2,3,6-tetrahydropyridin-4-yl)-3-(5-(difluoromethyl)-1,3,4-thiadiazol-2-yl)pyrazolo[1,5-a]pyridine-5-sulfonamide] | < 1 | < 0.1 |
| CC1(NS(=O)(=O)c2cc(N3CCC4(CC3)COC4)n3ncc(-c4nnc(C(F)(F)F)s4)c3c2)CC1 [Example 14, N-(1-methylcyclopropyl)-7-(2-oxa-7-azaspiro[3.5]nonan-7-yl)-3-(5-(trifluoromethyl)-1,3,4-thiadiazol-2-yl)pyrazolo[1,5-a]pyridine-5-sulfonamide] | < 1 | < 0.1 |
| Cn1ccnc1N1CCN(c2cc(S(=O)(=O)NC3(C#N)CC3)cc3c(-c4nnc(C(F)F)s4)cnn23)CC1 [Example 16, N-(1-cyanocyclopropyl)-3-(5-(difluoromethyl)-1,3,4-thiadiazol-2-yl)-7-(4-(1-methyl-1H-imidazol-2-yl)piperazin-1-yl)pyrazolo[1,5-a]pyridine-5-sulfonamide] | 1 to 5 | < 0.1 |
| N#CC1(NS(=O)(=O)c2cc(N3CCC4(CC3)COC4)n3cnc(-c4nnc(C(F)F)s4)c3c2)CC1 [Example 36, N-(1-cyanocyclopropyl)-1-(5-(difluoromethyl)-1,3,4-thiadiazol-2-yl)-5-(2-oxa-7-azaspiro[3.5]nonan-7-yl)imidazo[1,5-a]pyridine-7-sulfonamide] | < 1 | < 0.1 |
